Reference: patent publication US9115137B2, “2,3,4,5-tetrahydro-1H-pyrido[4,3-B]indole compounds and methods of use thereof” (priority 2008, dated 2015)

How the values were obtained:
[1] = test system: rat central imidazoline I2 receptor; assay: Central imidazoline I2 radioligand binding ([3H]Idazoxan); settings: compound at 1 μM; Wistar Rat cerebral cortex
Description: To evaluate in radioligand binding assays the activity of compounds of the invention, rat central imidazoline I2 receptor obtained from Wistar Rat cerebral cortex (Brown, C. M. et al., Br. J. Pharmacol. 99:803, 1990) in a modified Tris-HCl buffer (50 mM Tris-HCl buffer, pH 7.4, 0.5 mM EDTA) was used. Compounds of the invention were incubated with 2 nM [^3H]Idazoxan for 30 minutes at 25° C. Non-specific binding was estimated in the presence of 1 μM Idazoxan. Receptor proteins were filtered and washed, the filters were then counted to determine [^3H]Idazoxan specifically bound. Compounds were screened at 1 μM or lower, using 1% DMSO as vehicle. Compounds of the invention were tested in this biochemical assay and percent inhibition of specific binding was determined. Biochemical assay results are presented as the percent inhibition of specific binding in Table 5.

[2] = target: T1, human recombinant histamine H1 receptor (Homo sapiens, UniProt P35367); assay: Histamine H1 radioligand binding ([3H]Pyrilamine); settings: compound at 1 μM; CHO cells; read-out: Histamine Binding (1 μM) H1, percent inhibition of specific binding
T1 construct: expressed in transfected cells; host or cells: CHO cells
Description: To evaluate in radioligand binding assays the activity of compounds of the invention, human recombinant histamine H1 receptor expressed in Chinese hamster ovary (CHO) cells (De Backer, M. D. et al., Biochem. Biophys. Res. Comm. 197(3):1601, 1993) in a modified Tris-HCl buffer (50 mM Tris-HCl, pH 7.4, 2 mM MgCl2, 100 mM NaCl, 250 mM Sucrose) was used. Compounds of the invention were incubated with 1.2 nM [^3H]Pyrilamine for 180 minutes at 25° C. Non-specific binding was estimated in the presence of 1 μM pyrilamine. Receptor proteins were filtered and washed, the filters were then counted to determine [^3H]Pyrilamine specifically bound. Compounds were screened at 1 μM, using 1% DMSO as vehicle. Biochemical assay results are presented as the percent inhibition of specific binding in Table 5.

T1 sequence (P35367 whole entry): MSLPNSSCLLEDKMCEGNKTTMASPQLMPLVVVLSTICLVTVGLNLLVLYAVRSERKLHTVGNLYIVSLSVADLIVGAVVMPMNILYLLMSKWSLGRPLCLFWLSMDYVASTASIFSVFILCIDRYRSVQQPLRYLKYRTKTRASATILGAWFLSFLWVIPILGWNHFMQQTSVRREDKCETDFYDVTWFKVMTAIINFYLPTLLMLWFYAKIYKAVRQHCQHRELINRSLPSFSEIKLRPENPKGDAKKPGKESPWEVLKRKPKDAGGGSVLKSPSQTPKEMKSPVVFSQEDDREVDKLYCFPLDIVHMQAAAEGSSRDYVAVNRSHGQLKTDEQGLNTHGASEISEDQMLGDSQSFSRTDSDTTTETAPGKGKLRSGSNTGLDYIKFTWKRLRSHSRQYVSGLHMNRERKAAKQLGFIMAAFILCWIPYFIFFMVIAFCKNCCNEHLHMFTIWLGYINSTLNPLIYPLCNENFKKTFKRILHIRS

SMILES: CN1CCc2c(c3cc(Cl)ccc3n2CCC(=O)NC2CCCC2)C1 [Compound 31, 3-(8-chloro-1,2,3,4-tetrahydro-2-methylpyrido[4,3-b]indol-5-yl)-N-cyclopentylpropanamide]
- Imidazoline I2 Central (1 μM), percent inhibition of specific binding [1]: 33%
- inhibition at 1 µM [2]: 45%

SMILES: CCNC(=O)Cn1c2c(c3cc(C)ccc31)CN(C)CC2 [Compound 22, N-ethyl-2-(1,2,3,4-tetrahydro-2,8-dimethylpyrido[4,3-b]indol-5-yl)acetamide]
- Imidazoline I2 Central (1 μM), percent inhibition of specific binding [1]: 51%
- inhibition at 1 µM [2]: 85%

SMILES: Cc1ccc2c(c1)c1c(n2CC(N)=O)CCN(C)C1 [Compound 64, 2-(1,2,3,4-tetrahydro-2,8-dimethylpyrido[4,3-b]indol-5-yl)acetamide]
- Imidazoline I2 Central (1 μM), percent inhibition of specific binding [1]: 16%
- inhibition at 1 µM [2]: 62%

SMILES: CN1CCc2c(c3cc(Cl)ccc3n2CC(=O)N(C)C)C1 [Compound 48, 2-(8-chloro-1,2,3,4-tetrahydro-2-methylpyrido[4,3-b]indol-5-yl)-N,N-dimethylacetamide]
- Imidazoline I2 Central (1 μM), percent inhibition of specific binding [1]: 18%
- inhibition at 1 µM [2]: 73%

SMILES: CC(C)OC(=O)Cn1c2c(c3cc(Cl)ccc31)CN(C)CC2 [Compound 11, isopropyl 2-(8-chloro-1,2,3,4-tetrahydro-2-methylpyrido[4,3-b]indol-5-yl)acetate]
- Imidazoline I2 Central (1 μM), percent inhibition of specific binding [1]: 5%
- inhibition at 1 µM [2]: 101%

SMILES: Cc1ccc2c(c1)c1c(n2CCC(=O)Nc2ccc(F)cc2)CCN(C)C1 [Compound 47, N-(4-fluorophenyl)-3-(1,2,3,4-tetrahydro-2,8-dimethylpyrido[4,3-b]indol-5-yl)propanamide]
- Imidazoline I2 Central (1 μM), percent inhibition of specific binding [1]: 47%
- inhibition at 1 µM [2]: 90%

SMILES: Cc1ccc2c(c1)c1c(n2CCNC(=O)C2CCCCC2)CCN(C)C1 [Compound 62, N-(2-(1,2,3,4-tetrahydro-2,8-dimethylpyrido[4,3-b]indol-5-yl)ethyl)cyclohexanecarboxamide]
- Imidazoline I2 Central (1 μM), percent inhibition of specific binding [1]: 42%
- inhibition at 1 µM [2]: 63%

SMILES: Cc1ccc2c(c1)c1c(n2CCNC(=O)C2CCNCC2)CCN(C)C1 [Compound 65, N-(2-(1,2,3,4-tetrahydro-2,8-dimethylpyrido[4,3-b]indol-5-yl)ethyl)piperidine-4-carboxamide]
- Imidazoline I2 Central (1 μM), percent inhibition of specific binding [1]: 23%
- inhibition at 1 µM [2]: 34%

SMILES: Cc1ccc2c(c1)c1c(n2CCC(=O)NCC2CCCCC2)CCN(C)C1 [Compound 30, N-(cyclohexylmethyl)-3-(1,2,3,4-tetrahydro-2,8-dimethylpyrido[4,3-b]indol-5-yl)propanamide]
- Imidazoline I2 Central (1 μM), percent inhibition of specific binding [1]: 61%
- inhibition at 1 µM [2]: 18%

SMILES: CCOC(=O)Cn1c2c(c3cc(Cl)ccc31)CN(C)CC2 [Compound 10, ethyl 2-(8-chloro-1,2,3,4-tetrahydro-2-methylpyrido[4,3-b]indol-5-yl)acetate]
- Imidazoline I2 Central (1 μM), percent inhibition of specific binding [1]: 25%
- inhibition at 1 µM [2]: 99%

SMILES: CCCCOC(=O)Cn1c2c(c3cc(Cl)ccc31)CN(C)CC2 [Compound 52, butyl 2-(8-chloro-1,2,3,4-tetrahydro-2-methylpyrido[4,3-b]indol-5-yl)acetate]
- Imidazoline I2 Central (1 μM), percent inhibition of specific binding [1]: 14%
- inhibition at 1 µM [2]: 98%

SMILES: CN1CCc2c(c3cc(Cl)ccc3n2CC(=O)NC2CCCC2)C1 [Compound 27, 2-(8-chloro-1,2,3,4-tetrahydro-2-methylpyrido[4,3-b]indol-5-yl)-N-cyclopentylacetamide]
- Imidazoline I2 Central (1 μM), percent inhibition of specific binding [1]: 8%
- inhibition at 1 µM [2]: 63%

SMILES: CN1CCc2c(c3cc(Cl)ccc3n2CCC(=O)O)C1 [CD55, 3-(8-chloro-1,2,3,4-tetrahydro-2-methylpyrido[4,3-b]indol-5-yl)propanoic acid]
- Imidazoline I2 Central (1 μM), percent inhibition of specific binding [1]: 3%
- inhibition at 1 µM [2]: 22%

SMILES: Cc1ccc2c(c1)c1c(n2CCN)CCN(C)C1 [CD62, 2-(1,2,3,4-tetrahydro-2,8-dimethylpyrido[4,3-b]indol-5-yl)ethanamine]
- Imidazoline I2 Central (1 μM), percent inhibition of specific binding [1]: 13%
- inhibition at 1 µM [2]: 44%

SMILES: Cc1ccc2c(c1)c1c(n2CC(=O)O)CCN(C)C1 [CD58, 2-(1,2,3,4-tetrahydro-2,8-dimethylpyrido[4,3-b]indol-5-yl)acetic acid]
- Imidazoline I2 Central (1 μM), percent inhibition of specific binding [1]: 3%
- inhibition at 1 µM [2]: 5%

SMILES: Cc1ccc2c(c1)c1c(n2CCC(=O)NCc2ccccc2)CCN(C)C1 [Compound 59, N-benzyl-3-(1,2,3,4-tetrahydro-2,8-dimethylpyrido[4,3-b]indol-5-yl)propanamide]
- Imidazoline I2 Central (1 μM), percent inhibition of specific binding [1]: 64%
- inhibition at 1 µM [2]: 60%

SMILES: Cc1ccc2c(c1)c1c(n2CC(=O)Nc2ccc(F)cc2)CCN(C)C1 [Compound 51, N-(4-fluorophenyl)-2-(1,2,3,4-tetrahydro-2,8-dimethylpyrido[4,3-b]indol-5-yl)acetamide]
- Imidazoline I2 Central (1 μM), percent inhibition of specific binding [1]: 12%
- inhibition at 1 µM [2]: 85%

SMILES: Cc1ccc2c(c1)c1c(n2CC(=O)NC(C)C)CCN(C)C1 [Compound 23, 2-(1,2,3,4-tetrahydro-2,8-dimethylpyrido[4,3-b]indol-5-yl)-N-isopropylacetamide]
- Imidazoline I2 Central (1 μM), percent inhibition of specific binding [1]: 1%
- inhibition at 1 µM [2]: 65%

SMILES: Cc1ccc2c(c1)c1c(n2CCNC(=O)c2ccc(F)cc2Cl)CCN(C)C1 [Compound 63, 2-chloro-4-fluoro-N-(2-(1,2,3,4-tetrahydro-2,8-dimethylpyrido[4,3-b]indol-5-yl)ethyl)benzamide]
- Imidazoline I2 Central (1 μM), percent inhibition of specific binding [1]: 41%
- inhibition at 1 µM [2]: 86%

SMILES: Cc1ccc2c(c1)c1c(n2CCC(=O)O)CCN(C)C1 [CD47, 3-(1,2,3,4-tetrahydro-2,8-dimethylpyrido[4,3-b]indol-5-yl)propanoic acid]
- Imidazoline I2 Central (1 μM), percent inhibition of specific binding [1]: 3%
- inhibition at 1 µM [2]: 25%

SMILES: CN1CCc2c(c3cc(Cl)ccc3n2CCC(=O)N(C)C)C1 [Compound 49, 3-(8-chloro-1,2,3,4-tetrahydro-2-methylpyrido[4,3-b]indol-5-yl)-N,N-dimethylpropanamide]
- Imidazoline I2 Central (1 μM), percent inhibition of specific binding [1]: 58%
- inhibition at 1 µM [2]: 82%

SMILES: CN1CCc2c(c3cc(Cl)ccc3n2CC(=O)OCc2ccccc2)C1 [Compound 13, benzyl 2-(8-chloro-1,2,3,4-tetrahydro-2-methylpyrido[4,3-b]indol-5-yl)acetate]
- Imidazoline I2 Central (1 μM), percent inhibition of specific binding [1]: 16%
- inhibition at 1 µM [2]: 96%

SMILES: Cc1ccc2c(c1)c1c(n2CC(=O)NCc2ccccc2)CCN(C)C1 [Compound 25, N-benzyl-2-(1,2,3,4-tetrahydro-2,8-dimethylpyrido[4,3-b]indol-5-yl)acetamide]
- Imidazoline I2 Central (1 μM), percent inhibition of specific binding [1]: 18%
- inhibition at 1 µM [2]: 72%

SMILES: CN1CCc2c(c3cc(Cl)ccc3n2CC(=O)NC2CCCCC2)C1 [Compound 60, 2-(8-chloro-1,2,3,4-tetrahydro-2-methylpyrido[4,3-b]indol-5-yl)-N-cyclohexylacetamide]
- Imidazoline I2 Central (1 μM), percent inhibition of specific binding [1]: 6%
- inhibition at 1 µM [2]: 50%

SMILES: CN1CCc2c(c3cc(Cl)ccc3n2CC(N)=O)C1 [Compound 45, 2-(8-chloro-1,2,3,4-tetrahydro-2-methylpyrido[4,3-b]indol-5-yl)acetamide]
- Imidazoline I2 Central (1 μM), percent inhibition of specific binding [1]: 24%
- inhibition at 1 µM [2]: 82%

SMILES: CCOC(=O)CCn1c2c(c3cc(Cl)ccc31)CN(C)CC2 [CD17, ethyl 3-(8-chloro-1,2,3,4-tetrahydro-2-methylpyrido[4,3-b]indol-5-yl)propanoate]
- Imidazoline I2 Central (1 μM), percent inhibition of specific binding [1]: 62%
- inhibition at 1 µM [2]: 100%

SMILES: Cc1ccc2c(c1)c1c(n2CCNC(=O)C(C)C)CCN(C)C1 [Compound 61, N-(2-(1,2,3,4-tetrahydro-2,8-dimethylpyrido[4,3-b]indol-5-yl)ethyl)isobutyramide]
- Imidazoline I2 Central (1 μM), percent inhibition of specific binding [1]: 40%
- inhibition at 1 µM [2]: 32%

SMILES: CN1CCc2c(c3cc(Cl)ccc3n2CC(=O)O)C1 [CD46, 2-(8-chloro-1,2,3,4-tetrahydro-2-methylpyrido[4,3-b]indol-5-yl)acetic acid]
- Imidazoline I2 Central (1 μM), percent inhibition of specific binding [1]: 28%
- inhibition at 1 µM [2]: 69%

SMILES: Cc1ccc2c(c1)c1c(n2CCNC(=O)c2ccncc2)CCN(C)C1 [Compound 50, N-(2-(1,2,3,4-tetrahydro-2,8-dimethylpyrido[4,3-b]indol-5-yl)ethyl)isonicotinamide]
- Imidazoline I2 Central (1 μM), percent inhibition of specific binding [1]: 24%
- inhibition at 1 µM [2]: 47%

SMILES: CN1CCc2c(c3cc(Cl)ccc3n2CC(=O)OC2CCCC2)C1 [Compound 15]
- Imidazoline I2 Central (1 μM), percent inhibition of specific binding [1]: 23%
- inhibition at 1 µM [2]: 99%
